Measurements as given in patent US20170145002A1, “DEUTERATED ISOXAZOLE DERIVATIVES AND THEIR USE AS METABOTROPIC GLUTAMATE RECEPTOR POTENTIATORS” (AstraZeneca AB, priority 2015, published 2017).

Experiments:
[1] = Metabolic stability and intrinsic clearance in human liver microsomes (HLM); type: in vitro ADME; details: pooled human liver microsomes, NADPH, 37° C., 0.5-30 minutes; for microsomal CLint at 1 μM: read-out: Human Liver Microsomes Median CLint; for half-life at 1 μM: read-out: Human Liver Microsomes Median t1/2
Description: This assay was used to measure the in vitro metabolic stability of Compounds A, B, C and D of the application in pooled human liver microsomes. The concentration of parent compound in the reaction system for calculating intrinsic clearance of the compounds and estimating their stability in pooled human liver microsomes was evaluated by LC/MS/MS. 100 μmol/L solutions of each Compound A, B, C and D as well as 100 μmol/L solutions of each positive control compound (i.e., phenacetin, verapamil, diclofenac, imiprimine, benzydamine and metoprolol) were prepared by adding 2 μL of 10 mmol/L stock solution in DMSO to 198 μL of acetonitrile. A 1.1236 mg/mL HLM mixture was prepared by adding 1325 μL of 20 mg/mL HLM to 22260 μL of phosphate buffer. The HLM mixture (222.5 μL of the 1.1236 mg/mL mixture) and 25 μL of a 10 mM NADPH solution were added to the incubation plates. After mixing on a whirly mixer for 10 seconds, the incubation plates were pre-warmed at 37° C. for 8 minutes. The solutions of Compounds A, B, C and D (2.5 μL of the 100 μM solutions prepared before) as well as positive control solutions (2.5 μL of the 100 μM solutions prepared before) were added to the incubation plate. The incubation mixture was mixed on a whirly mixer for 10 seconds and incubation was carried out at 37° C. The reaction was quenched by transferring 20 μL of the incubated mixture at 0.5, 5, 10, 15, 20 and 30 minutes into the quenching plate containing 100 μL of cold acetonitrile. The quenching plates at 4000 rpm were centrifuged for 20 minutes, placed at 4 ° C. for 30 minutes, then re-centrifuged at 4000 rpm for 20 minutes to precipitate protein. The supernatant of each compound (40 μL) was transferred into a 96-well analysis plate. Compounds A, B, C and D were pooled together into one cassette, and pure water (160 μL) was added in each well. All incubations were performed in singlicate. API 4000 (AB sciex, USA) Ultra mass spectrometer was used to carry out the samples analysis in the MRM mode (MS/MS). Peak areas were determined from extracted ion chromatograms. Percentage of parent compound remaining was calculated from peak area of each compound or positive control. The slope value, k, was determined by linear regression of the natural logarithm of percent parent remaining vs. incubation time curve.
All calculations were carried out using Microsoft Excel. The in vitro half-life (in vitro t1/2) was determined from the slope value, wherein in vitro t1/2=−(0.693/k). Conversion of the in vitrot1/2 (in min) into the in vitro intrinsic clearance (in vitro CLint, in μL/min/mg proteins) was done by using the following equation:
in vitro CLint=(0.693/t1/2)*(volume of incubation (μL)/amount of proteins (mg)).

[2] = Metabolic stability and intrinsic clearance in rat hepatocytes; type: in vitro ADME; details: cryopreserved rat hepatocytes 1.0×10^6 viable cells/mL, 37° C., up to 120 minutes; read-out: Rat Hepatocytes Median t1/2
Description: Stock solutions (10 mM) of Compounds A, B, C, D and of control compounds were prepared in the appropriate solvent (DMSO). The L-15 Medium was placed in a 37° C. water bath, and allowed to warm for at least 15 minutes prior to use. Acetonitrile (80 μL) was added to each well of the 96-well plate (quenching plate).
In a new 96-well plate, the solutions of the above compounds and of the control compounds were diluted to 100 μM by combining 198 μL of acetonitrile and 2 μL of each stock solutions. A vial of cryopreserved rat hepatocytes was removed from storage, while ensuring that the vial remain at cryogenic temperatures until thawing process ensued. As quickly as possible, the cells were thawed by placing the vial in a 37° C. water bath and gently shaking the vial. The vial remained in the water bath until all ice crystals had dissolved and were no longer visible. After thawing was completed, the vial was sprayed with 70% ethanol, and transferred into a biosafety cabinet. The vial was opened and the content poured into a 50 mL conical tube containing L-15 Medium. The vial was washed twice. The 50 mL conical tube was placed in a centrifuge and spun at 50 g for 3 minutes (room temperature). The L-15 medium was aspirated. A small volume of buffer (˜200 μL) was added and the pellet was re-suspended. The tube was filled with buffer to a volume of 50 mL and centrifugation was repeated. Upon completion of spin, the L-15 Medium was aspirated and the hepatocytes re-suspended in enough incubation medium to yield ˜1.5×10^6 cells/mL. Using Cellometer® Vision, the cells were counted and the viable cell density was determined. Cells with poor viability (<80% viability) were not acceptable for use. Cells were diluted with incubation medium to a working cell density of 1.0×10^6 viable cells/mL. Hepatocytes (247.5 μL) were transferred into each well of a 96-well cell culture plate. The plate was placed on an Eppendorf Thermomixer Comfort plate shaker to allow the hepatocytes to warm for 10 minutes.
Solutions (2.5 μL of 100 μM) of Compounds A, B, C, D and of the control compounds were added into an incubation well containing cells and mixed to achieve a homogenous suspension at 0.5 minutes, which when achieved, defined the 0.5 minute time point. At the 0.5 minute time point, the incubated mixture (20 μL) was transferred to wells in a “Quenching plate,” followed by vortexing. […]
All calculations were carried out using Microsoft Excel. Peak areas were determined from extracted ion chromatograms. The in vitro half-life (t1/2) of the parent compound was determined by regression analysis of the Ln percent parent disappearance vs. time curve.
The in vitro intrinsic clearance (in vitro Clint, in μL/min/10^6 cells) was determined from the slope value using the following equation: […]

SMILES	microsomal CLint at 1 μM [1] [µL/min/mg]	half-life at 1 μM [1] [h]	half-life at 1 μM [2] [h]
[2H]C1([2H])COCC([2H])([2H])N1C(=O)c1cc(-c2cc(Cl)c3c(c2)CN([C@@H](C)C2CC2)C3=O)on1 [Compound C, (S)-7-chloro-2-(1-cyclopropylethyl)-5-(3-(morpholine-4-carbonyl-3,3,5,5-d4)isoxazol-5-yl)isoindolin-1-one]	7	1.66	0.485
[2H]C1([2H])CN(C(=O)c2cc(-c3cc(Cl)c4c(c3)CN([C@@H](C)C3CC3)C4=O)on2)CC([2H])([2H])O1 [Compound B, (S)-7-chloro-2-(1-cyclopropylethyl)-5-(3-(morpholine-4-carbonyl-2,2,6,6-d4)isoxazol-5-yl)isoindolin-1-one]	9.5	1.22	0.613
[2H]C1([2H])OC([2H])([2H])C([2H])([2H])N(C(=O)c2cc(-c3cc(Cl)c4c(c3)CN([C@@H](C)C3CC3)C4=O)on2)C1([2H])[2H] [Compound A, (S)-7-chloro-2-(1-cyclopropylethyl)-5-(3-(morpholine-4-carbonyl-2,2,3,3,5,5,6,6-d8)isoxazol-5-yl)isoindolin-1-one]	< 3	> 3.85	1.67
C[C@@H](C1CC1)N1Cc2cc(-c3cc(C(=O)N4CCOCC4)no3)cc(Cl)c2C1=O [Compound D, (S)-7-chloro-2-(1-cyclopropylethyl)-5-(3-(morpholine-4-carbonyl)isoxazol-5-yl)isoindolin-1-one, reference compound]	9.5	1.22	0.622
